Measured values: paper PMC6941357, “An in vitro toolbox to accelerate anti-malarial drug discovery and development” (Malaria Journal, 2020)
Like-named read-outs stand apart in the source and are kept apart here. Marks after values point to notes of the source that are not given here.

Columns and labels:
[1] = Ionization constants by potentiometric titration; type: physicochemical; details: mean ± SD, n = 3 titrations; for pKa: aqueous solution (DMSO stock diluted 1:10 with water), read-out: Measured pKa
Protocol: The autotitrator was controlled by Tiamo software (Version 1.3). pH measurements were conducted using a Metrohm LL Micro glass electrode which was calibrated on the day of use with calibration standards at pH 2, 4, 7 and 10. All reagents were standardized (directly or indirectly) against potassium hydrogen phthalate (Sigma-Aldrich, A.C.S. Acidimetric Standard). Titrant solutions were protected from carbon dioxide absorption by flushing with nitrogen before sealing or by the incorporation of a drying tube filled with self-indicating soda lime into the titration reaction vessel set-up.
Aliquots were introduced directly into the titration vessel and diluted 1:10 with water (typical final compound concentration of 0.5 mM).

[2] = system: human liver microsomes; experiment: in vitro; details: for HLM CLint: microsomes
In short: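 Compound depletion in human liver microsomes was followed by LC–MS at 2–60 min, with cofactor-free controls. First-order depletion rate constants gave in vitro CLint (µL/min/mg protein), corrected to unbound CLint using measured microsomal fu.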

[3] = molecular target: CYP2D6 (Homo sapiens, UniProt P10635); experiment: Cytochrome P450 inhibition in human liver microsomes; details: for inhibition at 20 µM: human, pH 7.4
In short: (§1)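 Activity of each isoform followed via a specific probe-substrate metabolite formed in human liver microsomes; reactions quenched with ice-cold acetonitrile and metabolite measured by LC–MS. Percent inhibition taken versus metabolite formation without inhibitor; Km from metabolite formation rate (pmol/min/mg protein) across substrate concentrations.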

[4] = molecular target: CYP2C19 (Homo sapiens, UniProt P33261); experiment: as above; details: for inhibition at 20 µM: human, pH 7.4
In short: as §1

[5] = molecular target: T1, CYP1A2 (Homo sapiens, UniProt P05177); experiment: as above
T1 sequence (P05177 1-516): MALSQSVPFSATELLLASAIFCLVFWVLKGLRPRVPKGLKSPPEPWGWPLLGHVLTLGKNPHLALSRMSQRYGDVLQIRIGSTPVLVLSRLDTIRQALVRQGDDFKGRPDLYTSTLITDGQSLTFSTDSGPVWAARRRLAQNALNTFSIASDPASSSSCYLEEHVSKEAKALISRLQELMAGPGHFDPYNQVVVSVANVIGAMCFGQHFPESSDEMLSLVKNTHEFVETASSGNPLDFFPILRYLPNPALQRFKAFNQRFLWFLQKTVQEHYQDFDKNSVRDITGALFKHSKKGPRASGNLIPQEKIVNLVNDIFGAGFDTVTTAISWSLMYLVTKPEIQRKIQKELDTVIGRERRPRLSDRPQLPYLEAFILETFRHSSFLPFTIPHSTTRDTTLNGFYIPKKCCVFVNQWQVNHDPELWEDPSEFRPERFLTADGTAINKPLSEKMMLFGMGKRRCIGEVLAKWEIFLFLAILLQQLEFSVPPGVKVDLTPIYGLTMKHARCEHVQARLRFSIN
In short: as §1

[6] = molecular target: CYP3A4 (Homo sapiens, UniProt P08684); experiment: as above
In short: as §1

[7] = Binding to human liver microsomes via ultracentrifugation; type: in vitro ADME; details: human, pH 7.4, 0.4 mg/mL protein, read-out: Fraction unbound, HLM
In short: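 Unbound fraction by ultracentrifugation: Cunbound measured in protein-free supernate, Ctotal from spiked tubes held at 37 °C, sampled at start and end to check degradation. Matrix was 0.4 mg/mL human liver microsomal protein, 0.1 M phosphate pH 7.4; matrix-matched analysis against one calibration curve.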

[8] = system: human plasma; details: methods UF, ED, EP or not described per compound, ref [6]–[22] of Additional file 1; cited from earlier work
[9] = CYP3A4 (midaz) IC50, human liver microsomes, CYP3A4 (midaz), highest concentration tested 20 µM
[10] = CYP3A4 (test) IC50, human liver microsomes, CYP3A4 (test), highest concentration tested 20 µM
[11] = human, microsomes, pH 7.4, CYP3A4 (midaz) % inhibition at max conc
[12] = human, microsomes, pH 7.4, CYP3A4 (test) % inhibition at max conc

Chain of CYP2C19 (P33261 whole entry): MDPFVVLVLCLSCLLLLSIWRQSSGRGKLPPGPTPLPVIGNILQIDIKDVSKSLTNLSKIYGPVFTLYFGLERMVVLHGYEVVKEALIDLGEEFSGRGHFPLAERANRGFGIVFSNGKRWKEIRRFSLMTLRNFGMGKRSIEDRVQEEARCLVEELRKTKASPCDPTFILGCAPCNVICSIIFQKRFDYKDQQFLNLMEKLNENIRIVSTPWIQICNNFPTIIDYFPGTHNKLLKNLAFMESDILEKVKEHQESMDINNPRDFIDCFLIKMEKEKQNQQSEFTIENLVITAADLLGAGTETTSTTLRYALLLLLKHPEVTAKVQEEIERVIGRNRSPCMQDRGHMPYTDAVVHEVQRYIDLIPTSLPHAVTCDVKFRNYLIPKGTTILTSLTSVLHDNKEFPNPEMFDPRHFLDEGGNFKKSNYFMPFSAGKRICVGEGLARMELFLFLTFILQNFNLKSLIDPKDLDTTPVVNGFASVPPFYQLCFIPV
Chain of CYP3A4 (P08684 whole entry): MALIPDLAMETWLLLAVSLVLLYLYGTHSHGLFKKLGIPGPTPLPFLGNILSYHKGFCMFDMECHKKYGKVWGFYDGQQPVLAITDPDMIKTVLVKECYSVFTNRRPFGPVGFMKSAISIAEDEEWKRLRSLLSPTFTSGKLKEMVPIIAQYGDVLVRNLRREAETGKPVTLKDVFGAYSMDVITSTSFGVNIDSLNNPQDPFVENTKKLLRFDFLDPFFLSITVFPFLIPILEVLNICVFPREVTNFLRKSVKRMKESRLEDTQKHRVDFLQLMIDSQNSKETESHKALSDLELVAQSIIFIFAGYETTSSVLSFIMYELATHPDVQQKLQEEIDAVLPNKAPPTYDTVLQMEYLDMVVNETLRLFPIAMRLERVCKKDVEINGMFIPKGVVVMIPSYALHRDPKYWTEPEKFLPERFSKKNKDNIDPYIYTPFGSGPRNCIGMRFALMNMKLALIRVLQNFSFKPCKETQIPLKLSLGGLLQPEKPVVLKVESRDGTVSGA
Chain of CYP2D6 (P10635 whole entry, canonical isoform): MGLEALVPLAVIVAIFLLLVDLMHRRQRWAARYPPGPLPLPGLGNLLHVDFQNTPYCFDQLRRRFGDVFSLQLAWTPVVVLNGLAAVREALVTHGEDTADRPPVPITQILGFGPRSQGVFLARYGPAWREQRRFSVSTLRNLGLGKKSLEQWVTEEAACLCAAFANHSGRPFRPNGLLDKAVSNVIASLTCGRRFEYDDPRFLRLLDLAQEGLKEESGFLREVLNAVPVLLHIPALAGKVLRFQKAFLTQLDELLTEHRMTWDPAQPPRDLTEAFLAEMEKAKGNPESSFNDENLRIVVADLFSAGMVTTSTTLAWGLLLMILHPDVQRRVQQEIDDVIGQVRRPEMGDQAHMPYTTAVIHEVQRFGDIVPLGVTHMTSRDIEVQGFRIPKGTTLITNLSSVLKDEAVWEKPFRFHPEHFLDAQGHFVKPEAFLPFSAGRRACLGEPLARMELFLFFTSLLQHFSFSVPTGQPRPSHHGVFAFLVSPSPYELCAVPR

SMILES	IC50 [3]	IC50 [4]	IC50 [5]	IC50 [6, 9]	IC50 [6, 10]	pKa ([1]; basic pKa (B))	CYP2C19 % inhibition at max conc ([4]; microsomes)	CYP1A2 % inhibition at max conc ([5]; microsomes)	CYP3A4 (midaz) % inhibition at max conc ([6]; microsomes)	CYP3A4 (test) % inhibition at max conc ([6]; microsomes)	Literature fu [8]	fraction unbound at […] ([7]; liver microsomes)	further results
Cc1cc(Nc2ccc(S(F)(F)(F)(F)F)cc2)n2nc(C(C)(F)F)nc2n1 [DSM265]	–	–	–	–	–	–	–	–	–	–	–	–	Measured pKa ([1]; basic pKa (B)): no ionizations could be detected
Cc1cc(Nc2ccc(C(F)(F)F)nc2)n2nc(C(C)(F)F)nc2n1 [DSM421]	–	–	–	–	–	–	–	–	–	–	–	–	Measured pKa ([1]; basic pKa (B)): no ionizations could be detected; Unbound CLint [2]: < 9.09^c µL/min/mg; HLM CLint ([2]; human): < 7^b µL/min/mg
CC(C)(N)CNC(=O)C[C@H]1CC[C@]2(CC1)OO[C@]1(O2)C2CC3CC(C2)CC1C3 [OZ277, Arterolane]	> 20 µM	> 20 µM	> 20 µM	> 20 µM	> 20 µM	8.9 ± 0.16	–	–	–	–	–	–	CYP1A2 % inhibition at max conc ([5]; human liver microsomes, at max conc, nmi = no measurable inhibition): nmi; inhibition at 20 µM [6, 11]: 26%; inhibition at 20 µM [6, 12]: 46%; fraction unbound at […] ([7]; microsomes): 0.044 ± 0.005; Unbound CLint ([2]; human, 1 µM, pH 7.4): < 159 µL/min/mg
O=C(NCCN1CCCC1)c1cc(-c2ccc(CN3CCOCC3)cc2)nc2ccc(F)cc12 [M5717]	–	–	–	–	–	–	nmi	nmi	nmi	nmi	0.23	–	CYP2D6 % inhibition at max conc ([3]; microsomes): nmi; IC50 ([3]; microsomes): > 20 µM; IC50 ([4]; microsomes): > 20 µM; IC50 ([5]; microsomes): > 20 µM; IC50 ([6]; microsomes): > 20 µM; Unbound CLint [2]: 22.2 µL/min/mg; HLM CLint ([2]; human): 11.1 µL/min/mg
CCc1nc(N)nc(N)c1OCCCOc1ccccc1CCC(=O)O.Cl [P218]	–	–	–	–	–	–	nmi	nmi	nmi	nmi	–	–	CYP2D6 % inhibition at max conc ([3]; microsomes): nmi; IC50 ([3]; microsomes): > 20 µM; IC50 ([4]; microsomes): > 20 µM; IC50 ([5]; microsomes): > 20 µM; IC50 ([6]; microsomes): > 20 µM; Measured pKa ([1]; acidic pKa (A)): 4.9 ± 0.002; Measured pKa ([1]; basic pKa (B)): 7.3 ± 0.003; Unbound CLint [2]: < 7.95^c µL/min/mg; HLM CLint ([2]; human): < 7^b µL/min/mg
Cc1nc(Nc2ncc(N3CCN(C)[C@H](C)C3)c(Nc3cc(C)n(C)n3)n2)cc(C2CC2)c1F [MMV253]	> 20 µM	–	> 20 µM	–	> 20 µM	8 ± 0.03	–	nmi	–	–	–	0.11 ± 0.017	inhibition at 20 µM ([3]; microsomes): 35%; inhibition at 20 µM [6, 12]: 37%
COc1cc(C)c2c(Oc3cccc(C(F)(F)F)c3)c(OC)cc(NC(C)CCCN)c2n1 (stereo not drawn) [Tafenoquine]	> 20 µM	> 20 µM	> 20 µM	> 20 µM	3.8 µM	8.7 ± 0.09	–	–	–	–	< 0.005	0.002 ± 0.0003	inhibition at 20 µM ([3]; microsomes): 35%; inhibition at 20 µM ([4]; microsomes): 42%; inhibition at 20 µM ([5]; human, microsomes, pH 7.4): 20%; Ki ([6]; CYP3A4 (test) Ki, human liver microsomes, CYP3A4 (test)): 2.3 µM; inhibition at 20 µM [6, 11]: 40%
CC1(C)N=C(N)N=C(N)N1c1ccc(Cl)cc1 [Cycloguanil]	6 µM	> 20 µM	> 20 µM	> 20 µM	> 20 µM	11.4 ± 0.3	nmi	nmi	nmi	nmi	–	0.72 ± 0.083	Ki [3]: 3.7 µM
N#Cc1cc(NC(=O)[C@H]2c3ccccc3C(=O)N(CC(F)(F)F)[C@@H]2c2cccnc2)ccc1F [SJ733]	16 µM	> 20 µM	> 20 µM	> 20 µM	> 20 µM	4.1 ± 0.03	–	nmi	–	–	–	0.58 ± 0.069	Ki [3]: 9.6 µM; inhibition at 20 µM ([4]; microsomes): 38%; inhibition at 20 µM [6, 11]: 33%; inhibition at 20 µM [6, 12]: 37%
CS(=O)(=O)c1ccc(-c2cnc(N)c(-c3ccc(C(F)(F)F)nc3)c2)cc1 [MMV048]	> 20 µM	> 20 µM	> 20 µM	–	> 20 µM	4 ± 0.07	nmi	nmi	–	nmi	–	0.61 ± 0.014	inhibition at 20 µM ([3]; microsomes): 16%
CC1(C)c2nc(-c3ccc(F)cc3)c(Nc3ccc(F)cc3)n2CCN1C(=O)CN [KAF156]	–	–	–	–	–	8.4 ± 0.06	–	nmi	–	–	–	0.14 ± 0.006	inhibition at 20 µM ([4]; microsomes): 40%
C[C@H]1[C@H](OC(=O)CCC(=O)O)O[C@@H]2O[C@@]3(C)CC[C@H]4[C@H](C)CC[C@@H]1[C@@]24OO3 [Artesunate]	> 20 µM	> 20 µM	20 µM	–	–	–	nmi	–	nmi	nmi	–	–	CYP2D6 % inhibition at max conc ([3]; microsomes): nmi; Ki [5]: 12 µM; IC50 ([6]; human, microsomes, pH 7.4, CYP3A4 (test) IC50): > 20 µM; pKa ([1]; acidic pKa (A)): 4.7 ± 0.04
C[C@H]1Cc2c([nH]c3cc(Cl)c(F)cc23)[C@@]2(N1)C(=O)Nc1ccc(Cl)cc12 [KAE609]	5.9 µM	< 0.25 µM	4.5 µM	> 20 µM	> 20 µM	5.1 ± 0.02	–	–	nmi	–	–	0.019 ± 0.001	Ki [3]: 3.7 µM; Ki [4]: < 0.15 µM; Ki [5]: 2.7 µM; inhibition at 20 µM [6, 12]: 30%
CCc1nc(N)nc(N)c1-c1ccc(Cl)cc1 [Pyrimethamine]	> 20 µM	–	> 20 µM	–	–	6.9 ± 0.1	nmi	nmi	–	–	0.088	0.54 ± 0.097	inhibition at 20 µM ([3]; microsomes): 36%
COc1ncnc(NS(=O)(=O)c2ccc(N)cc2)c1OC [Sulfadoxine]	> 20 µM	> 20 µM	> 20 µM	–	–	–	nmi	nmi	nmi	nmi	0.05-0.1	0.93 ± 0.086	CYP2D6 % inhibition at max conc ([3]; microsomes): nmi; pKa ([1]; acidic pKa (A)): 6.2 ± 0.01
CCNCc1cc(Nc2ccnc3cc(Cl)ccc23)ccc1O [Desethylamodiaquine]	2.6 µM	> 18 µM	> 18 µM	> 18 µM	–	8.5 ± 0.05	nmi	nmi	nmi	–	0.18	–	Ki [3]: 1.6 µM
O=C1C(O)=C([C@H]2CC[C@H](c3ccc(Cl)cc3)CC2)C(=O)c2ccccc21 [Atovaquone]	> 20 µM	> 20 µM	> 20 µM	–	–	–	nmi	nmi	nmi	nmi	0.001	~0.002	CYP2D6 % inhibition at max conc ([3]; microsomes): nmi
C[C@H]1[C@H](N2CCS(=O)(=O)CC2)O[C@@H]2O[C@@]3(C)CC[C@H]4[C@H](C)CC[C@@H]1[C@@]24OO3 [Artemisone]	–	–	–	–	–	–	–	–	–	–	–	0.44 ± 0.024	Measured pKa ([1]; basic pKa (B)): no ionizations could be detected
